ChEMBL document CHEMBL1134077, “Synthesis of potent and selective dopamine D(4) antagonists as candidate radioligands” (Bioorg Med Chem Lett, 2001)
pKi: −log10 of the molar value.

How the values were obtained:
D(4) dopamine receptor = molecular target: T1, D(4) dopamine receptor (Rattus norvegicus, UniProt P30729); assay: In vitro binding affinity to rat Dopamine receptor D4 measured by displacement of the radioligand [3H]spiperone
T1 sequence (P30729 whole entry): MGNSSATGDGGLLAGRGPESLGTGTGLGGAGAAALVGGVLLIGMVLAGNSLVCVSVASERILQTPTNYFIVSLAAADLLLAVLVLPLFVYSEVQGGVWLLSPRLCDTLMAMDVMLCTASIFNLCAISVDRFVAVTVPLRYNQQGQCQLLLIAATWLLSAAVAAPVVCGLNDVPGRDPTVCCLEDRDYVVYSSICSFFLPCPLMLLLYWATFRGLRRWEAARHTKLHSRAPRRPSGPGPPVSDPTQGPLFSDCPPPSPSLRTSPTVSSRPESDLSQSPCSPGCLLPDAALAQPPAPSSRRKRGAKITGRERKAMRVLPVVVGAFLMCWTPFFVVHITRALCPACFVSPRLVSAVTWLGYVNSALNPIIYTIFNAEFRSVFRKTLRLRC

[1] = molecular target: 5-hydroxytryptamine receptor 6 (Homo sapiens, UniProt P50406); assay: In vitro binding affinity to human 5-hydroxytryptamine 6 receptor
Sequence of 5-hydroxytryptamine receptor 6 (P50406 whole entry): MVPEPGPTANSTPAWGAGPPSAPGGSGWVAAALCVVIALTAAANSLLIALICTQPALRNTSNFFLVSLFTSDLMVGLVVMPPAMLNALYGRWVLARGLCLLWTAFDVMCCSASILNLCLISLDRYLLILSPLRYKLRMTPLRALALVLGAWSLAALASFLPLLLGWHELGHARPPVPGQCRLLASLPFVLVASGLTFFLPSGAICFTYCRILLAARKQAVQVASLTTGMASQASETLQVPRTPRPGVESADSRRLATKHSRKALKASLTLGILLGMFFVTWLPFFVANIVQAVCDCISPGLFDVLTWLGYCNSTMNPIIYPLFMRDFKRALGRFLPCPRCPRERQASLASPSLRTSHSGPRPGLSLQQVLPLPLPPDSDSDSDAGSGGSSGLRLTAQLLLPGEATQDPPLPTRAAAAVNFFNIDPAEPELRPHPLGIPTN

[2] = molecular target: 5-hydroxytryptamine receptor 7 (Homo sapiens, UniProt P34969); assay: In vitro binding affinity to human 5-hydroxytryptamine 7 receptor
Sequence of 5-hydroxytryptamine receptor 7 (P34969 whole entry): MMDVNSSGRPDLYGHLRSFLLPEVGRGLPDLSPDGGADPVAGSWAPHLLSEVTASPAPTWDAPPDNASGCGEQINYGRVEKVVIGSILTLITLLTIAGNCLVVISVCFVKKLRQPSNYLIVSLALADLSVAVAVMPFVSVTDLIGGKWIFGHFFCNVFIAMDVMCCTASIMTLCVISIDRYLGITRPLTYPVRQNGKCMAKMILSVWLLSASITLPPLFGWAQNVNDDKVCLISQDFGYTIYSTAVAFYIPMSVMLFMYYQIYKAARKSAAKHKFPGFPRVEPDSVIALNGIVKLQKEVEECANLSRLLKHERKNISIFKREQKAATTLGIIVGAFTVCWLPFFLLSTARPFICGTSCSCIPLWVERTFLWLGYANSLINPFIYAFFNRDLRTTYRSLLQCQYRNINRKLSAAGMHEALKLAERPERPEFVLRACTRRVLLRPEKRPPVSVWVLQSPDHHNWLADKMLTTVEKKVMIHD

[3] = molecular target: 5-hydroxytryptamine receptor 2A (Homo sapiens, UniProt P28223); assay: Binding affinity to cloned human 5-hydroxytryptamine 2A receptor
Sequence of 5-hydroxytryptamine receptor 2A (P28223 whole entry): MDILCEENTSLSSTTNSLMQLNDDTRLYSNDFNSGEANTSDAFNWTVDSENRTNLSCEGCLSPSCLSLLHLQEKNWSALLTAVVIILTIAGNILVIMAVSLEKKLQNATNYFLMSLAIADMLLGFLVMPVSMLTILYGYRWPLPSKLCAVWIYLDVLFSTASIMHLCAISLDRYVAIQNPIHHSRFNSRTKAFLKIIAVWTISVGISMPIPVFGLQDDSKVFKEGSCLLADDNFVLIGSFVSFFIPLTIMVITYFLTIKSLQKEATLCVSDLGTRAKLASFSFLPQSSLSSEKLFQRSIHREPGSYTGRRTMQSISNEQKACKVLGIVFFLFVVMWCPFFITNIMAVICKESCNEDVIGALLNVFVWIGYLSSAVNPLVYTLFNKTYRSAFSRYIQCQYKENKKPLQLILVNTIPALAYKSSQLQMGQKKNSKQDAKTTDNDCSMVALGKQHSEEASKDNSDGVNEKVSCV

[4] = Binding affinity to cloned Nicotinic acetylcholine receptors; design: species or system Rattus norvegicus

| pKi [4] | SMILES | pKi (D(4) dopamine receptor) | pKi [1] | pKi [2] | pKi [3] |
| --- | --- | --- | --- | --- | --- |
| – | FC(F)(F)c1ccc(N2CCN(Cc3c[nH]c4ncccc34)CC2)cc1 | 7.47 | 5.15 | 6.50 | 5.55 |
| < 5.00 | Clc1ccc(N2CCN(Cc3c[nH]c4ncccc34)CC2)cc1 [L-745870] | – | – | – | – |
